Measured values: ChEMBL document CHEMBL1201862, “PubChem BioAssay data set” (2004)
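Cells were grown in 96-well plates and exposed to each compound for 48 hours at five concentrations; endpoints were interpolated linearly between bracketing concentrations, or set to the highest concentration if not reached. Abbreviation: GI50, concentration required for 50% inhibition of growth.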 Activity calls are given as the source filed them. Cut-off read from the data, not from the text of the source: active = GI50 up to about 1.1 µM and inactive = higher.

Experiments:
Test in all cases: NCI anticancer screen, dose series, 48 h
786-0 = test system: 786-0
A498 = test system: A498
A549 = test system: A549
ACHN = test system: ACHN
BT-549 = test system: BT-549
CAKI-1 = test system: CAKI-1
CCRF-CEM = test system: CCRF-CEM
COLO 205 = test system: COLO 205
DU-145 = test system: DU-145
EKVX = test system: EKVX
HCC 2998 = test system: HCC 2998
HCT-116 = test system: HCT-116
HCT-15 = test system: HCT-15
HL-60 = test system: HL-60
HOP-62 = test system: HOP-62
HOP-92 = test system: HOP-92
HT-29 = test system: HT-29
Hs-578T = test system: Hs-578T
IGROV-1 = test system: IGROV-1
K562 = test system: K562
LOX IMVI = test system: LOX IMVI
M14 = test system: M14
MCF7 = test system: MCF7
MDA-MB-231 = test system: MDA-MB-231
MDA-MB-435 = test system: MDA-MB-435
MDA-N = test system: MDA-N
MOLT-4 = test system: MOLT-4
Malme-3M = test system: Malme-3M
NCI-H226 = test system: NCI-H226
NCI-H23 = test system: NCI-H23
NCI-H460 = test system: NCI-H460
NCI-H522 = test system: NCI-H522
NCI/ADR-RES = test system: NCI/ADR-RES
OVCAR-3 = test system: OVCAR-3
OVCAR-4 = test system: OVCAR-4
OVCAR-5 = test system: OVCAR-5
OVCAR-8 = test system: OVCAR-8
PC-3 = test system: PC-3
RPMI-8226 = test system: RPMI-8226
RXF 393 = test system: RXF 393
SF-268 = test system: SF-268
SF-295 = test system: SF-295
SF-539 = test system: SF-539
SK-MEL-28 = test system: SK-MEL-28
SK-MEL-2 = test system: SK-MEL-2
SK-MEL-5 = test system: SK-MEL-5
SK-OV-3 = test system: SK-OV-3
SN12C = test system: SN12C
SNB-19 = test system: SNB-19
SR = test system: SR
SW-620 = test system: SW-620
T47D = test system: T47D
TK-10 = test system: TK-10
U-251 = test system: U-251
UACC-257 = test system: UACC-257
UACC-62 = test system: UACC-62
KM12 = test system: KM12
SNB-75 = test system: SNB-75
UO-31 = test system: UO-31

COc1cc2c(cc1OC)C(=O)N(c1ccc(O)cc1)C2=O
GI50 (786-0): > 100 µM (inactive) | GI50 (A498): > 100 µM (inactive) | GI50 (A549): > 100 µM (inactive) | GI50 (ACHN): > 100 µM (inactive) | GI50 (BT-549): > 100 µM (inactive) | GI50 (CAKI-1): > 100 µM (inactive) | GI50 (CCRF-CEM): > 100 µM (inactive) | GI50 (COLO 205): > 100 µM (inactive) | GI50 (DU-145): > 100 µM (inactive) | GI50 (EKVX): > 100 µM (inactive) | GI50 (HCC 2998): > 100 µM (inactive) | GI50 (HCT-116): > 100 µM (inactive) | GI50 (HCT-15): > 100 µM | GI50 (HL-60): > 100 µM (inactive) | GI50 (HOP-62): > 100 µM (inactive) | GI50 (HOP-92): > 100 µM (inactive) | GI50 (HT-29): > 100 µM (inactive) | GI50 (Hs-578T): > 100 µM (inactive) | GI50 (IGROV-1): > 100 µM (inactive) | GI50 (K562): > 100 µM (inactive) | GI50 (LOX IMVI): > 100 µM (inactive) | GI50 (M14): > 100 µM (inactive) | GI50 (MCF7): < 0.01 µM (active) | GI50 (MDA-MB-231): > 100 µM (inactive) | GI50 (MDA-MB-435): > 100 µM (inactive) | GI50 (MDA-N): > 100 µM (inactive) | GI50 (MOLT-4): > 100 µM (inactive) | GI50 (Malme-3M): > 100 µM (inactive) | GI50 (NCI-H226): > 100 µM (inactive) | GI50 (NCI-H23): > 100 µM (inactive) | GI50 (NCI-H460): > 100 µM (inactive) | GI50 (NCI-H522): > 100 µM (inactive) | GI50 (NCI/ADR-RES): > 100 µM (inactive) | GI50 (OVCAR-3): > 100 µM (inactive) | GI50 (OVCAR-4): > 100 µM (inactive) | GI50 (OVCAR-5): > 100 µM (inactive) | GI50 (OVCAR-8): > 100 µM (inactive) | GI50 (PC-3): > 100 µM (inactive) | GI50 (RPMI-8226): > 100 µM (inactive) | GI50 (RXF 393): > 100 µM (inactive) | GI50 (SF-268): > 100 µM (inactive) | GI50 (SF-295): > 100 µM (inactive) | GI50 (SF-539): > 100 µM (inactive) | GI50 (SK-MEL-28): > 100 µM (inactive) | GI50 (SK-MEL-2): > 100 µM (inactive) | GI50 (SK-MEL-5): > 100 µM (inactive) | GI50 (SK-OV-3): > 100 µM (inactive) | GI50 (SN12C): > 100 µM (inactive) | GI50 (SNB-19): > 100 µM (inactive) | GI50 (SR): > 100 µM (inactive) | GI50 (SW-620): > 100 µM (inactive) | GI50 (T47D): > 100 µM (inactive) | GI50 (TK-10): > 100 µM (inactive) | GI50 (U-251): > 100 µM (inactive) | GI50 (UACC-257): > 100 µM (inactive) | GI50 (UACC-62): > 100 µM (inactive)

CC(=O)Oc1ccc(/C=C/C(=O)O[C@@H](C)[C@H](C)OC(=O)/C=C/c2ccc(OC(C)=O)c(OC(C)=O)c2)cc1OC(C)=O
GI50 (786-0): 12.1 µM (inactive) | GI50 (A498): 24.7 µM (inactive) | GI50 (A549): 13.8 µM (inactive) | GI50 (ACHN): 11.4 µM (inactive) | GI50 (BT-549): 10 µM (inactive) | GI50 (CAKI-1): 27.3 µM (inactive) | GI50 (CCRF-CEM): 3.94 µM (inactive) | GI50 (COLO 205): 29.5 µM (inactive) | GI50 (DU-145): 21.9 µM (inactive) | GI50 (EKVX): 22.9 µM (inactive) | GI50 (HCC 2998): 11.4 µM (inactive) | GI50 (HCT-116): 7.5 µM (inactive) | GI50 (HCT-15): 6.31 µM | GI50 (HOP-62): 7.45 µM (inactive) | GI50 (HOP-92): 20.2 µM (inactive) | GI50 (Hs-578T): 11 µM (inactive) | GI50 (IGROV-1): 5.75 µM (inactive) | GI50 (K562): 3.99 µM (inactive) | GI50 (KM12): 9.46 µM (inactive) | GI50 (LOX IMVI): 6.61 µM (inactive) | GI50 (M14): 11.4 µM (inactive) | GI50 (MCF7): 20 µM (inactive) | GI50 (MDA-MB-231): 39.9 µM (inactive) | GI50 (MDA-MB-435): 12.2 µM (inactive) | GI50 (MDA-N): 11.1 µM (inactive) | GI50 (MOLT-4): 2.22 µM (inactive) | GI50 (Malme-3M): 22.9 µM (inactive) | GI50 (NCI-H23): 6.5 µM (inactive) | GI50 (NCI-H460): 5.94 µM (inactive) | GI50 (NCI-H522): 6.37 µM (inactive) | GI50 (NCI/ADR-RES): 22.2 µM (inactive) | GI50 (OVCAR-3): 5.15 µM (inactive) | GI50 (OVCAR-4): 28.7 µM (inactive) | GI50 (OVCAR-5): 21.2 µM (inactive) | GI50 (OVCAR-8): 11.5 µM (inactive) | GI50 (PC-3): 23.1 µM (inactive) | GI50 (RPMI-8226): 4.75 µM (inactive) | GI50 (RXF 393): 13.6 µM (inactive) | GI50 (SF-268): 18.4 µM (inactive) | GI50 (SF-295): 11.2 µM (inactive) | GI50 (SF-539): > 100 µM (inactive) | GI50 (SK-MEL-28): 15.3 µM (inactive) | GI50 (SK-MEL-2): 19.7 µM (inactive) | GI50 (SK-MEL-5): 10.6 µM (inactive) | GI50 (SK-OV-3): 19.5 µM (inactive) | GI50 (SN12C): 19.6 µM (inactive) | GI50 (SNB-19): 18.9 µM (inactive) | GI50 (SNB-75): 20.1 µM (inactive) | GI50 (SR): 5.77 µM (inactive) | GI50 (SW-620): 2.42 µM (inactive) | GI50 (T47D): 13 µM (inactive) | GI50 (TK-10): 21.2 µM (inactive) | GI50 (U-251): 17.1 µM (inactive) | GI50 (UACC-257): 18.7 µM (inactive) | GI50 (UACC-62): 8.41 µM (inactive) | GI50 (UO-31): 5.94 µM (inactive)
